Structures can show the parent of a compound that is named as a salt.
Tests used:
Cathepsin S = Cathepsin S (UniProt P25774); assay: Cathepsin enzyme inhibition assay (fluorogenic peptide substrate Z-Val-Val-Arg-AMC), Cathepsin S; format: biochemical, human and mouse; conditions: enzyme 1 nM, substrate 20 μM, pH 6.5; read-out: CatS IC50
How it was run: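 Human or mouse cathepsin S (1 nM) was run in 100 mM potassium phosphate pH 6.5 with 5 mM EDTA, 0.001% Triton X-100 and 5 mM DTT. The rise in AMC fluorescence from cleavage was measured, and IC50 values were calculated by standard methods and expressed in μM.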

Cat L = Cat L (UniProt P07711); assay: Cathepsin enzyme inhibition assay (fluorogenic peptide substrate Z-Val-Val-Arg-AMC), Cathepsin L; format: biochemical, human and mouse; conditions: enzyme 1 nM, substrate 20 μM, pH 6.5; read-out: CatL IC50
How it was run: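 Cathepsin L at 1 nM was mixed with compound, then started with 20 μM Z-Val-Val-Arg-AMC in pH 6.5 potassium phosphate with EDTA, Triton X-100 and 5 mM DTT. AMC fluorescence (ex 360/em 465 nm) was followed over 20 min. IC50 is given in μM.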

Row | IC50 (Cathepsin S) [nM] | IC50 (Cat L) [nM] | Compound
1 | 0.02 | 995 | N#CC1(NC(=O)[C@@H]2C[C@@H](S(=O)(=O)c3ccccc3C(F)(F)F)CN2C(=O)C2(c3ccc(Cl)nc3)CC2)CC1 [Example 361, (2S,4R)-1-[1-(6-Chloro-pyridin-3-yl)-cyclopropanecarbonyl]-4-(2-trifluoromethyl-benzenesulfonyl)-pyrrolidine-2-carboxylic acid (1-cyano-cyclopropyl)-amide]
2 | 0.5 | ≥ 25000 | N#CC1(NC(=O)[C@@H]2C[C@@H](S(=O)(=O)c3ccc(-n4cnc5ccccc54)cc3C(F)(F)F)CN2)CC1 [Example 22, (2S,4R)-4-(4-Benzoimidazol-1-yl-2-trifluoromethyl-benzenesulfonyl)-pyrrolidine-2-carboxylic Acid (1-cyano-cyclopropyl)-amide hydrochloride]
3 | 0.19 | 79500 | CC1(C(=O)N2C[C@H](S(=O)(=O)c3ccc(-c4ccc(F)cc4F)cc3C(F)(F)F)C[C@H]2C(=O)NC2(C#N)CC2)CC1 [Example 259, (2S,4R)-4-(2′,4′-Difluoro-3-trifluoromethyl-biphenyl-4-sulfonyl)-1-(1-methyl-cyclopropanecarbonyl)-pyrrolidine-2-carboxylic acid (1-cyano-cyclopropyl)-amide]
4 | 0.4 | 4400 | N#CC1(NC(=O)[C@@H]2C[C@@H](S(=O)(=O)c3ccc(N4CCC(C(F)(F)F)CC4)cc3Cl)CN2C(=O)C2(C(F)(F)F)CC2)CC1 [Example 156, (2S,4R)-4-[2-Chloro-4-(4-trifluoromethyl-piperidin-1-yl)-benzenesulfonyl]-1-(1-trifluoromethyl-cyclopropanecarbonyl)-pyrrolidine-2-carboxylic acid (1-cyano-cyclopropyl)-amide]
5 | 0.123 | 1180 | CC(C)(C)N1CCN(c2ccc(S(=O)(=O)[C@@H]3C[C@@H](C(=O)NC4(C#N)CC4)N(C(=O)C4(C(F)(F)F)CC4)C3)c(Cl)c2)CC1 [Example 296, (2S,4R)-4-[4-(4-tert-Butyl-piperazin-1-yl)-2-chloro-benzenesulfonyl]-1-(1-trifluoromethyl-cyclopropanecarbonyl)-pyrrolidine-2-carboxylic acid (1-cyano-cyclopropyl)-amide]
6 | 0.895 | 29.5 | N#CC1(NC(=O)[C@@H]2C[C@@H](S(=O)(=O)c3ccccc3Cl)CN2C(=O)C2(c3ccc(Cl)cc3F)CC2)CC1 [Example 439, (2S,4R)-1-(1-(4-chloro-2-fluorophenyl)cyclopropanecarbonyl)-4-(2-chlorophenylsulfonyl)-N-(1-cyanocyclopropyl)pyrrolidine-2-carboxamide]
7 | 14 | ≥ 25000 | N#CCNC(=O)[C@@H]1C[C@@H](S(=O)(=O)c2ccccc2)CN1C(=O)c1ccccc1 [Example 52, (2S,4R)-4-Benzenesulfonyl-1-benzoyl-pyrrolidine-2-carboxylic acid cyanomethyl-amide]
8 | 0.3 | 63900 | CC1(C(=O)N2C[C@H](S(=O)(=O)c3ccc(OCC(F)(F)F)cc3C(F)(F)F)C[C@H]2C(=O)NC2(C#N)CC2)CC1 [Example 211, (2S,4R)-1-(1-Methyl-cyclopropanecarbonyl)-4-[4-(2,2,2-trifluoro-ethoxy)-2-trifluoromethyl-benzenesulfonyl]-pyrrolidine-2-carboxylic acid (1-cyano-cyclopropyl)-amide]
9 | 195 | ≥ 25000 | CC(C)C[C@]1(C(=O)NC2(C#N)CC2)C[C@H](S(C)(=O)=O)[C@@H](c2ccc(F)cc2)N1C(=O)OC(C)(C)C [Example 125, (2R,4S,5R)-2-(1-Cyano-cyclopropylcarbamoyl)-5-(4-fluoro-phenyl)-2-isobutyl-4-methanesulfonyl-pyrrolidine-1-carboxylic acid tert.-butyl ester]
10 | 0.895 | 260 | N#CC1(NC(=O)[C@@H]2C[C@@H](S(=O)(=O)c3ccccc3Cl)CN2C(=O)Cc2ccc(Cl)c(F)c2)CC1 [Example 444, (2S,4R)-4-(2-Chloro-benzenesulfonyl)-1-[2-(4-chloro-3-fluoro-phenyl)-acetyl]-pyrrolidine-2-carboxylic acid (1-cyano-cyclopropyl)-amide]
